Publication PMC9359557, “Discovery of a novel natural product inhibitor of Clostridioides difficile with potent activity in vitro and in vivo” (PLoS ONE, 2022)
≈ marks a conversion by molar mass, not a printed value.

What was measured:
C. difficile [1] = test: Minimum bactericidal concentration (MBC) assay; conditions: for MBC: Clostridioides difficile
C. difficile [2] = test: In vitro susceptibility assay (MIC); conditions: Clostridioides difficile
Caco-2 cells = test: Cytotoxicity assay (MTS); type: cell-based, human; conditions: concentration up to 16 μg/ml, 24 hrs
Description: A cytotoxicity assay against Caco-2 cells was performed to assess the potential toxic effect of the natural products as described before. Caco-2 cells cultured in DMEM media supplemented with 10% FBS, 1% NEAA, and 1% penicillin/streptomycin were grown at 37°C in presence of 5% CO2. Following trypsinization, cells were seeded to 96-well plates and allowed to grow till cells in each well attained 100% confluence. Hit natural products were added to the cells at a starting concentration of 16 μg/ml whereas control wells received DMSO at the same concentration. The plates were incubated for 24 hrs. after which MTS reagent was added and absorbance was recorded at 490 nm using a SpectraMax i3Multi-Mode Microplate Reader. Caco-2 cell survival post treatment with natural products were plotted as percentage viability of natural product-treated cells in comparison to the DMSO-treated cells using GraphPad prism v. 8.0.
Fig 4 Cytotoxicity assay of natural products against Caco-2 cell line. The percentage of viable Caco-2 cells was measured as the ratio of average absorbance of each sample relative to the negative control (DMSO). The absorbance values represent the mean of three samples of each natural product compound with error bars representing standard deviation values for the absorbance.

Compound | MBC (C. difficile [1]; ATCC43255, […]) [µg/mL] | MBC (C. difficile [1]; BAA1870, […]) [µg/mL] | MIC (C. difficile [2]) [µg/mL] | MIC50 (C. difficile [2]) [µg/mL] | MIC90 (C. difficile [2]) [µg/mL] | MIC (C. difficile [2]; ATCC43255, […]) [µg/mL] | MIC (C. difficile [2]; BAA1870, […]) [µg/mL] | bactericidal activity against C. difficile (C. difficile [1]; in words) | toxicity to Caco-2 cells (Caco-2 cells) | toxicity to Caco-2 cells (Caco-2 cells; […]) | MIC (C. difficile [2]; ATCC43255) [µg/mL] | MIC (C. difficile [2]; BAA1870) [µg/mL]
CCc1c(Cl)c(O)c(Cl)c(O)c1C(=O)O[C@H]1[C@H](O)[C@H](OC)[C@H](OC/C2=C\C=C\C[C@H](O)/C(C)=C/[C@H](CC)[C@@H](O[C@@H]3OC(C)(C)[C@@H](OC(=O)C(C)C)[C@H](O)[C@@H]3O)/C(C)=C/C(C)=C/C[C@@H]([C@@H](C)O)OC2=O)O[C@@H]1C [Fidaxomicin] | 0.06 (≈ 0.0567 µM) | 0.125 (≈ 0.118 µM) | 0.125 (≈ 0.118 µM) | 0.06 (≈ 0.0567 µM) | 0.125 (≈ 0.118 µM) | 0.06 (≈ 0.0567 µM) | 0.06 (≈ 0.0567 µM) |  |  |  |  | 
CO[C@H]1[C@H](O)C[C@@H](O[C@@H]2C[C@H](Oc3cc4cc5c(c(O)c4c(O)c3C)C(=O)[C@@H](O[C@H]3C[C@H](O[C@H]4C[C@H](O[C@H]6C[C@@](C)(O)[C@@H](OC(=O)C(C)C)[C@H](C)O6)[C@H](O)[C@@H](C)O4)[C@H](O)[C@@H](C)O3)[C@H]([C@H](OC)C(=O)[C@@H](O)[C@@H](C)O)C5)O[C@H](C)[C@H]2OC(C)=O)O[C@@H]1C [NP-003875] | 0.03 (≈ 0.0248 µM) | 0.03 (≈ 0.0248 µM) | 0.015 (≈ 0.0124 µM) | 0.03 (≈ 0.0248 µM) | 0.03 (≈ 0.0248 µM) |  |  | bactericidal activity | did not exhibit toxicity | non-toxic | 0.03 (≈ 0.0248 µM) | 0.03 (≈ 0.0248 µM)
CN[C@H](CC(C)C)C(=O)N[C@H]1C(=O)N[C@@H](CC(N)=O)C(=O)N[C@H]2C(=O)N[C@H]3C(=O)N[C@H](C(=O)N[C@H](C(=O)O)c4cc(O)cc(O)c4-c4cc3ccc4O)[C@H](O)c3ccc(c(Cl)c3)Oc3cc2cc(c3O[C@@H]2O[C@H](CO)[C@@H](O)[C@H](O)[C@H]2O[C@H]2C[C@](C)(N)[C@H](O)[C@H](C)O2)Oc2ccc(cc2Cl)[C@H]1O [Vancomycin] | 1 (≈ 0.69 µM) | 4 (≈ 2.76 µM) |  | 0.5 (≈ 0.345 µM) | 1 (≈ 0.69 µM) | 1 (≈ 0.69 µM) | 1 (≈ 0.69 µM) |  |  |  |  | 
